Source: EP0908457B1, “3-(1,2-benzisothiazol- and isoxazol-5-Y1)-2,4(1H,3H)-pyrimidinedione or thione and 3-(1,2-benzisothiazol- and isoxazol-5-y1)-4(3H)-pyrimidinone or thione herbicidal agents” (BASF AKTIENGESELLSCHAFT, priority 1997, dated 1999)

Columns and labels:
[1] = system: Sagittaria pygmaea, L.; experiment: Preemergence weed control under flooded paddy conditions, SAGPY (Arrowhead (Pygmaea)); assay type: in vivo; conditions: flooded paddy; for SAGPY herbicidal effect rating: preemergence, rated three to four weeks after treatment; for SAGPY: preemergence weeds, herbicidal effect rating 0-9, three to four weeks after treatment
[2] = system: Cyperus serotinus, Rottb.; experiment: Postemergence weed control under flooded paddy conditions, CYPSE (Flatsedge); assay type: in vivo; conditions: rated three to four weeks after treatment
[3] = system: Monochoria vaginalis, Presl.; experiment: Postemergence weed control under flooded paddy conditions, MOOVA (Monochoria); assay type: in vivo; conditions: rated three to four weeks after treatment
[4] = system: Echinochloa oryzoides (Ard.) Fritsch.; experiment: Preemergence weed control under flooded paddy conditions, ECHORC (Watergrass (Calif.)); assay type: in vivo; conditions: flooded paddy; for ECHORC herbicidal effect rating: preemergence, rated three to four weeks after treatment; for ECHORC: preemergence weeds, herbicidal effect rating 0-9, three to four weeks after treatment
[5] = system: Echinochloa oryzoides (Ard.) Fritsch.; experiment: Postemergence weed control under flooded paddy conditions, ECHORC (Watergrass (Calif.)); assay type: in vivo; conditions: rated three to four weeks after treatment
[6] = system: Cyperus iria; experiment: Postemergence weed control under flooded paddy conditions, CYPIR (Rice Flatsedge); assay type: in vivo; conditions: rated three to four weeks after treatment
[7] = system: Oryza sativa, (L.) Tebonnet; experiment: Rice tolerance to post-transplant applications under flooded paddy conditions (Example 187), ORYSAT (Rice, Tebonnet); conditions: for ORYSAT herbicidal effect rating: rated three to four weeks after treatment; for ORYSAT: herbicidal effect rating 0-9, three to four weeks after treatment
[8] = system: Cyperus iria; experiment: Preemergence weed control under flooded paddy conditions, CYPIR (Rice Flatsedge); assay type: in vivo; conditions: flooded paddy; for CYPIR herbicidal effect rating: preemergence, rated three to four weeks after treatment; for CYPIR: preemergence weeds, herbicidal effect rating 0-9, three to four weeks after treatment
[9] = system: Cyperus serotinus, Rottb.; experiment: Preemergence weed control under flooded paddy conditions, CYPSE (Flatsedge); assay type: in vivo; conditions: for CYPSE herbicidal effect rating: preemergence, rated three to four weeks after treatment; for CYPSE: preemergence weeds, herbicidal effect rating 0-9, three to four weeks after treatment
[10] = system: Monochoria vaginalis, Presl.; experiment: Preemergence weed control under flooded paddy conditions, MOOVA (Monochoria); assay type: in vivo; conditions: flooded paddy; for MOOVA herbicidal effect rating: preemergence, rated three to four weeks after treatment; for MOOVA: preemergence weeds, herbicidal effect rating 0-9, three to four weeks after treatment
[11] = system: Sagittaria pygmaea, L.; experiment: Postemergence weed control under flooded paddy conditions, SAGPY (Arrowhead (Pygmaea)); assay type: in vivo; conditions: rated three to four weeks after treatment
[12] = system: Oryza sativa, (L.) Tebonnet; experiment: Rice tolerance to post-transplant applications under flooded paddy conditions (Example 188), ORYSAT (Rice, Tebonnet); conditions: rated three to four weeks after treatment

COC(=O)COc1ccc(C)cc1-c1noc2ccc(-n3c(=O)cc(C(F)(F)F)n(C)c3=O)c(Cl)c12 [Example 261, Acetic acid, {{2-{4-chloro-5-[3,6-dihydro-3-methyl-2,6-dioxo-4-(trifluoromethyl)-1(2H)-pyrimidinyl]-1,2-benzisoxazol-3-yl}-p-tolyl}oxy}-, methyl ester]
9.0: herbicidal effect rating, MOOVA ([3]; Rate 0.0320 kg/ha) | herbicidal effect rating, MOOVA ([3]; Rate 0.0620 kg/ha) | herbicidal effect rating, MOOVA ([3]; Rate 0.1250 kg/ha) | herbicidal effect rating, MOOVA ([3]; Rate 0.2500 kg/ha)
4.0: CYPIR herbicidal effect rating ([8]; Rate 0.0320 kg/ha)
2.5: ECHORC herbicidal effect rating ([4]; Rate 0.0320 kg/ha)
2.0: ECHORC herbicidal effect rating ([4]; Rate 0.0620 kg/ha) | ECHORC herbicidal effect rating ([4]; Rate 0.1250 kg/ha) | CYPIR herbicidal effect rating ([8]; Rate 0.2500 kg/ha)
5.0: herbicidal effect rating, CYPIR ([6]; Rate 0.0320 kg/ha)
3.0: MOOVA herbicidal effect rating ([10]; Rate 0.2500 kg/ha)
0.0: SAGPY herbicidal effect rating ([1]; Rate 0.0320 kg/ha) | SAGPY herbicidal effect rating ([1]; Rate 0.0620 kg/ha) | SAGPY herbicidal effect rating ([1]; Rate 0.1250 kg/ha) | SAGPY herbicidal effect rating ([1]; Rate 0.2500 kg/ha) | herbicidal effect rating, CYPSE ([2]; Rate 0.0320 kg/ha) | herbicidal effect rating, CYPSE ([2]; Rate 0.0620 kg/ha) | herbicidal effect rating, CYPSE ([2]; Rate 0.1250 kg/ha) | herbicidal effect rating, CYPSE ([2]; Rate 0.2500 kg/ha) | ECHORC herbicidal effect rating ([4]; Rate 0.2500 kg/ha) | herbicidal effect rating, ECHORC ([5]; Rate 0.0320 kg/ha) | herbicidal effect rating, ECHORC ([5]; Rate 0.0620 kg/ha) | herbicidal effect rating, ECHORC ([5]; Rate 0.1250 kg/ha) | herbicidal effect rating, ECHORC ([5]; Rate 0.2500 kg/ha) | ORYSAT herbicidal effect rating ([7]; Rate 0.0320 kg/ha) | ORYSAT herbicidal effect rating ([7]; Rate 0.0620 kg/ha) | ORYSAT herbicidal effect rating ([7]; Rate 0.1250 kg/ha) | ORYSAT herbicidal effect rating ([7]; Rate 0.2500 kg/ha) | CYPSE herbicidal effect rating ([9]; Rate 0.2500 kg/ha) | herbicidal effect rating, SAGPY ([11]; Rate 0.0320 kg/ha) | herbicidal effect rating, SAGPY ([11]; Rate 0.0620 kg/ha) | herbicidal effect rating, SAGPY ([11]; Rate 0.1250 kg/ha) | herbicidal effect rating, SAGPY ([11]; Rate 0.2500 kg/ha) | herbicidal effect rating, ORYSAT (rice tolerance) ([12]; Rate 0.0320 kg/ha) | herbicidal effect rating, ORYSAT (rice tolerance) ([12]; Rate 0.0620 kg/ha) | herbicidal effect rating, ORYSAT (rice tolerance) ([12]; Rate 0.1250 kg/ha) | herbicidal effect rating, ORYSAT (rice tolerance) ([12]; Rate 0.2500 kg/ha)
5.5: CYPIR herbicidal effect rating ([8]; Rate 0.1250 kg/ha)
4.5: CYPIR herbicidal effect rating ([8]; Rate 0.0620 kg/ha) | CYPSE herbicidal effect rating ([9]; Rate 0.0320 kg/ha) | CYPSE herbicidal effect rating ([9]; Rate 0.0620 kg/ha) | CYPSE herbicidal effect rating ([9]; Rate 0.1250 kg/ha) | MOOVA herbicidal effect rating ([10]; Rate 0.0320 kg/ha) | MOOVA herbicidal effect rating ([10]; Rate 0.0620 kg/ha)
6.0: herbicidal effect rating, CYPIR ([6]; Rate 0.0620 kg/ha) | herbicidal effect rating, CYPIR ([6]; Rate 0.1250 kg/ha) | herbicidal effect rating, CYPIR ([6]; Rate 0.2500 kg/ha) | MOOVA herbicidal effect rating ([10]; Rate 0.1250 kg/ha)

Cn1c(C(F)(F)F)cc(=O)n(-c2ccc3snc(C(=O)C(C)(C)C)c3c2)c1=O [Example 432, 2,4(1H,3H)-Pyrimidinedione, 1-methyl-3-(3-pivaloyl-1,2-benzisothiazol-5-yl)-6-(trifluoromethyl)-]
8.0: herbicidal effect rating, CYPIR ([6]; Rate 0.0320 kg/ha) | herbicidal effect rating, CYPIR ([6]; Rate 0.0620 kg/ha) | CYPIR ([8]; 0.0320 kg/ha)
3.5: SAGPY ([1]; 0.0620 kg/ha) | CYPSE ([9]; 0.0620 kg/ha)
8.5: SAGPY ([1]; 0.2500 kg/ha)
6.5: ORYSAT ([7]; 0.1250 kg/ha) | CYPSE ([9]; 0.1250 kg/ha)
2.0: herbicidal effect rating, SAGPY ([11]; Rate 0.1250 kg/ha)
0.0: SAGPY ([1]; 0.0320 kg/ha) | herbicidal effect rating, CYPSE ([2]; Rate 0.0320 kg/ha) | CYPSE ([9]; 0.0320 kg/ha) | herbicidal effect rating, SAGPY ([11]; Rate 0.0320 kg/ha) | herbicidal effect rating, SAGPY ([11]; Rate 0.0620 kg/ha)
9.0: herbicidal effect rating, CYPSE ([2]; Rate 0.2500 kg/ha) | herbicidal effect rating, MOOVA ([3]; Rate 0.0320 kg/ha) | herbicidal effect rating, MOOVA ([3]; Rate 0.0620 kg/ha) | herbicidal effect rating, MOOVA ([3]; Rate 0.1250 kg/ha) | herbicidal effect rating, MOOVA ([3]; Rate 0.2500 kg/ha) | ECHORC ([4]; 0.0320 kg/ha) | ECHORC ([4]; 0.0620 kg/ha) | ECHORC ([4]; 0.1250 kg/ha) | ECHORC ([4]; 0.2500 kg/ha) | herbicidal effect rating, ECHORC ([5]; Rate 0.0320 kg/ha) | herbicidal effect rating, ECHORC ([5]; Rate 0.0620 kg/ha) | herbicidal effect rating, ECHORC ([5]; Rate 0.1250 kg/ha) | herbicidal effect rating, ECHORC ([5]; Rate 0.2500 kg/ha) | herbicidal effect rating, CYPIR ([6]; Rate 0.1250 kg/ha) | herbicidal effect rating, CYPIR ([6]; Rate 0.2500 kg/ha) | CYPIR ([8]; 0.0620 kg/ha) | CYPIR ([8]; 0.1250 kg/ha) | CYPIR ([8]; 0.2500 kg/ha) | CYPSE ([9]; 0.2500 kg/ha) | MOOVA ([10]; 0.0320 kg/ha) | MOOVA ([10]; 0.0620 kg/ha) | MOOVA ([10]; 0.1250 kg/ha) | MOOVA ([10]; 0.2500 kg/ha)
6.0: ORYSAT ([7]; 0.0320 kg/ha) | ORYSAT ([7]; 0.0620 kg/ha)
4.0: herbicidal effect rating, CYPSE ([2]; Rate 0.0620 kg/ha) | herbicidal effect rating, SAGPY ([11]; Rate 0.2500 kg/ha) | herbicidal effect rating, ORYSAT (rice tolerance) ([12]; Rate 0.0320 kg/ha) | herbicidal effect rating, ORYSAT (rice tolerance) ([12]; Rate 0.0620 kg/ha)
7.5: SAGPY ([1]; 0.1250 kg/ha) | ORYSAT ([7]; 0.2500 kg/ha)
7.0: herbicidal effect rating, CYPSE ([2]; Rate 0.1250 kg/ha) | herbicidal effect rating, ORYSAT (rice tolerance) ([12]; Rate 0.1250 kg/ha) | herbicidal effect rating, ORYSAT (rice tolerance) ([12]; Rate 0.2500 kg/ha)
